This is an account of results in PMC10095301, “To Target or Not to Target Schistosoma mansoni Cyclic Nucleotide Phosphodiesterase 4A?” (International Journal of Molecular Sciences, 2023).

Structures are written as SMILES. pIC50, pKi: −log10 of the molar value. Several values for one entry are separate records, joined by “and”; a condition that tells them apart may be missing. Equal entries are not always repeated. Where two headings read alike, the source gives them in different places. Marks after values point to notes of the source that are not given here.

The target in data set [1] is SmPDE4A_CD (Schistosoma mansoni, UniProt A0ACM8RGL1). Nature of the data set: biochemical. Particulars: for inhibition at 10 µM: read-out: SmPDE4A_CD Inhibition at 10 µM (%); for Ki: read-out: SmPDE4A_CD pKi (converted); for pKi: SmPDE4A_CD pKi, mean ± SEM, n ≥ 3, cAMP at 2 × Km (6 µM), Cheng-Prusoff. As for the experimental part: (§1) Enzyme velocity was plotted against substrate concentration, and Km values were determined using GraphPad Prism software version 8, analyzing the Michaelis–Menten kinetics of the enzyme.
(§2) Inhibitors were initially tested at 10 µM (triplicate measurements/assay, n = 3). In follow-up experiments, dose-response curves were made in the range 100 µM–10 pM (triplicate measurements/assay, n = 3). […] The reaction was terminated by the addition of 5 µL Lonza Stop Buffer supplemented with 10 µM pan-PDE4 inhibitor NPD-0001. Subsequently, 5 µL of Lonza Detection reagent (diluted to 80% with reaction buffer) was added, and the reaction was incubated for 10 min at 300 rpm. Luminescence was read with a Victor3 luminometer using a 0.1 s/well program. […] The Cheng-Prussoff equation, embedded in the GraphPad Prism software, was used to convert IC50 values to pKi values.

The target of data set [2] is SmPDE4A_FL (Schistosoma mansoni, UniProt A0ACM8RGL1). Nature of the data set: biochemical. To be noted: read-out: SmPDE4A_FL inhibition at 10 µM. As for the experimental part:
as §1, §2

The test system of data set [3] is S. mansoni. Kind of data set: In vitro anti-S. mansoni assay: oviposition (egg count). It counts as cell-based, Schistosoma mansoni. To be noted: eggs of days 4 and 5. As for the experimental part: (§3) For these experiments, roflumilast and NPD-0001 were freshly prepared in different concentrations (100 µM, 50 µM, 25 µM 10 µM and 5 µM) in RPMI-1640 medium and tested in 12-well tissue culture plates for S. mansoni survival and ovipositing capacity. To assess the effects of roflumilast and NPD-0001 on egg production in vitro, we used 12-well tissue culture plates containing 6–8 worms, including at least 1 or 2 worm couples and fresh RPMI-1640 medium containing the indicated concentration of the test compound. Worms were incubated overnight in a CO2 incubator at 37 °C. On the 2nd day, worms were washed 3 times with normal saline, fresh medium was added, and the incubation was continued. Each concentration was tested in duplicate wells, and on the 4th day, eggs were counted and discarded, and the medium was changed. On day 5 (the end of the observation period), newly deposited eggs were counted. The final egg number is the total count of days 4 and 5 for each concentration tested. Statistical analysis was done with Student’s unpaired, 2-tailed t-test.

Data set [4] is described as follows: Cytotoxicity on MRC-5 cells. It counts as cell-based. Particulars: human, MRC-5SV40 lung fibroblasts, read-out: MRC-5 pIC50 (converted). An excerpt: Table 4 Effect of SmPDE4A inhibitors on S. mansoni survival and oviposition. | column: MRC-5 pIC50
For data set [5], the system named is S. mansoni. Nature of the data set: In vitro anti-S. mansoni assay: adult worm killing. It counts as cell-based, Schistosoma mansoni. To be noted: for %Worm Killing (Female) / %Worm Killing (Male): day 5. As for the experimental part: Infected Syrian golden hamsters (Mesocrietus auratus) bred and maintained at the Schistosome Biology Supply Center (SBSC) of Theodor Bilharz Research Institute (TBRI), Giza, Egypt, were used. Animals were housed under controlled biological conditions. Animal experiments were conducted in accordance with the Guide for Care and Use of Laboratory Animals and were approved by the Institutional Review Board (IRB) of TBRI. Seven weeks post-infection, hamsters were anesthetized using pentobarbital in a dose of 200 mg/kg body weight and 2 hamsters were sacrificed to obtain the required number of worms. The animals were then perfused using a normal saline solution (0.9% NaCl), and worms were collected. Six to 8 worms per well were placed in a 12-well tissue culture plate, taking care to guarantee 1 to 2 worm pairs/well and fresh RPMI-1640 medium (plus glutamine, 20% newborn calf serum and antibiotics [streptomycin, penicillin and gentamicin]), containing the indicated concentration of the test compound, was added. Worms were incubated overnight in a CO2 incubator at 37 °C. On the 2nd day, worms were examined by microscopy, washed 3 times with normal saline, a fresh medium was added, and the incubation was continued. On the 3rd day, worm motility was observed, and on the 4th day, the medium was again changed. On day 5 (end of the observation period), worms were microscopically examined for their motility and appearance. Each concentration was tested in duplicate wells, and the final recording of percent worm mortality was determined as the number of dead worms [contracted and opaque] divided by the total number of worms ×100).
as §3

Data set [6] deals with S. mansoni. Also noted: method as in PMID 31711973. Particulars: data from Botros et al. and this study, cited from earlier work.
For data set [7], the target named is SmPDE4A. Also noted: method as in PMID 28704396. Particulars: estimated value; cited from earlier work.
Data set [8] deals with S. mansoni. On the set-up: method as in PMID 31711973. Particulars: data from Botros et al. and this study, cited from earlier work. The source holds these as a separate data set.

As to `COc1ccc(C(=O)Nc2c(Cl)cncc2Cl)cc1OCc1ccccc1` [NPD-0546], the inhibition (in general, the percentage by which the read-out fell short of the control) at 10 µM in data set [1] (10 µM compound) worked out at 8%.

As to `COc1ccc(C2=NN(C3CCN(C(=O)CN4C(=O)CCC4=O)CC3)C(=O)C3CC=CCC23)cc1OC` (stereo not drawn) [NPD-0007], the inhibition at 10 µM in data set [1] (10 µM compound) was more than 50%; in data set [2] (10 µM compound, toolbox screen) it was more than 50%. In data set [1], the Ki is 501 nM. Also, in data set [1] (representative dose-response curves, Figure 4B, read-out: pIC50 inhibition of enzymatic activity of SmPDE4A_CD (converted)), the IC50 is 3980 nM.

Turning to `O=C(Nc1c(Cl)cncc1Cl)c1ccc(Cl)c(OCC2CC2)c1` [NPD-3096], the Ki in data set [1] was 794 nM.

`O=C(Nc1c(Cl)c[n+]([O-])cc1Cl)c1ccc(OC(F)F)c(OCC2CC2)c1` [NPD-2980, roflumilast N-oxide]: the negative logarithm of the Ki (pKi) – broadly, −log10 of the Ki, conventionally taken in molar units – in data set [1] is 7.20.

Consider `COc1ccc(C(=O)Nc2c(Cl)cncc2Cl)cc1OCC1CC1` [NPD-3094], for which, in data set [1], the Ki is 398 nM.

For the molecule `COc1ccc(C2=NN(C3CCCCCC3)C(=O)[C@H]3CC=CC[C@@H]23)cc1OCCCCOc1ccc(-c2nnn[nH]2)cc1` [NPD-0001], the “% Oviposition Reduction” value in data set [3] (5 µM) is 0%; in data set [3] (10 µM) it was 0%; in data set [3] (25 µM), 13%; in data set [3] (50 µM), 23%; in data set [3] (100 µM), 100 * %. Further, in data set [4], the IC50 is 7940 nM. Moreover, the “%Worm Killing (Female)” value in data set [5] (5 µM), in data set [5] (10 µM), in data set [5] (25 µM) and in data set [5] (50 µM) was 0% in each case. Further, the “%Worm Killing (Male)” value in data set [5] (5 µM) came out at 0%; in data set [5] (10 µM) it was 0%; in data set [5] (25 µM) it was 0%; in data set [5] (50 µM), 0%; in data set [5] (100 µM), 63%. The negative-log IC50 (pIC50) (in general, −log10 of the IC50, conventionally taken in molar units) in data set [1] is 5.80. In addition, the pKi in data set [1] was 6.90. Further, the inhibition at 10 µM in data set [1] and in data set [2] was more than 50% each time.

On to `COc1ccc(C(=O)Nc2c(Cl)cncc2Cl)cc1Cl` [NPD-1180], for which the inhibition at 10 µM in data set [1] (10 µM compound) was found to be 9%.

Turning to `O=C(Nc1cnccc1Cl)c1ccc(OC(F)F)c(OCC2CC2)c1` [NPD-1205], the inhibition at 10 µM in data set [1] (10 µM compound) was 21%. In data set [1] (relative to roflumilast), the “reduction in SmPDE4A inhibitory potency (fold)” value is reported as “three-fold reduction in potency”.

For the molecule `O=C(Nc1cccc(Cl)c1)c1ccc(OC(F)F)c(OCC2CC2)c1` [NPD-3075], the inhibition at 10 µM in data set [1] (10 µM compound) was determined as 4%.

As to `O=C(Nc1ccncc1Cl)c1ccc(OC(F)F)c(OCC2CC2)c1` [NPD-1204], the Ki in data set [1] was 251 nM.

For `COc1ccc(C(=O)Nc2c(Cl)cncc2Cl)cc1` [NPD-0548], the inhibition at 10 µM in data set [1] (10 µM compound) was found to be 16%.

For `O=C(Nc1c(Cl)cncc1Cl)c1ccc(F)c(OCC2CC2)c1` [NPD-3093], in data set [1], the Ki is 2510 nM.

With `O=C(Nc1c(Cl)cncc1Cl)c1ccc(OC(F)F)c(OCC2CC2)c1` [roflumilast], the “%Worm Killing (Female)” value in data set [6] (5 µM), in data set [6] (10 µM), in data set [6] (25 µM), in data set [6] (50 µM) and in data set [6] (100 µM) was 0% in each case. For the same molecule, the “%Worm Killing (Male)” value in data set [6] (5 µM), in data set [6] (10 µM), in data set [6] (25 µM), in data set [6] (50 µM) and in data set [6] (100 µM) was 0% in each case. The “SmPDE4A pKi (estimated)” value in data set [7] is recorded as 7.8. In data set [4], the IC50 is more than 63100 nM. Moreover, the “% Oviposition Reduction” value in data set [8] (5 µM) is 35 * %; in data set [8] (10 µM), 39 * %; in data set [8] (25 µM), 42 * %; in data set [8] (50 µM), 49 * %; in data set [8] (100 µM) it was 52 * %. The same molecule had a pIC50 in data set [1] of 6.20. Also, the negative-log Ki (pKi) in data set [1] is 7.10. Besides, the inhibition at 10 µM in data set [1] and in data set [2] was more than 50% in each case.

For the molecule `COc1ccc(C(=O)Nc2c(Cl)cncc2Cl)cc1OC` [NPD-0446], the Ki in data set [1] is 3980 nM.

In the case of `O=C(C1CCCCC1)N1CC(=O)N2CCc3ccccc3C2C1` (stereo not drawn) [praziquantel], the “% Oviposition Reduction” value in data set [3] (5 µM) is reported as 100%. Further, the worm killing in data set [5] (5 µM (lowest concentration tested), sex not specified) is 100%.

Turning to `COc1ccc(NC(=O)c2ccc(OC(F)F)c(OCC3CC3)c2)cc1Cl` [NPD-3000], the inhibition at 10 µM in data set [1] (10 µM compound) worked out at 15%.

As to `O=C(Nc1ccncc1)c1ccc(OC(F)F)c(OCC2CC2)c1` [NPD-3076], the inhibition at 10 µM in data set [1] (10 µM compound) turned out to be 46%.

For `O=C(Nc1ccccc1Cl)c1ccc(OC(F)F)c(OCC2CC2)c1` [NPD-3080], the Ki in data set [1] is 2000 nM. Also, the “reduction in SmPDE4A inhibitory potency (fold)” value in data set [1] (relative to NPD-1204) turned out to be 10 fold.

For the molecule `COc1ccc(C(=O)Nc2c(Cl)cncc2Cl)cc1OC1CCCC1` [piclamilast], in data set [1], the pIC50 was 5.50; the pKi was 6.50 and 7.20; the inhibition at 10 µM was more than 50%. In addition, in data set [2], the inhibition at 10 µM is more than 50%.
